Reference: the kinase profiling compilation of Christmann-Franck et al. (2016)

What was measured:
Test in all cases: radiometric filter-binding kinase assay, Kinase HotSpot
Details in all cases: compound 0.5 µM; ATP 10 µM
ABL2 (human) = ABL2 (human) (UniProt P42684)
ALK (human) = ALK (human) (UniProt Q9UM73)
AURKB (human) = AURKB (human) (UniProt Q96GD4)
AURKC (human) = AURKC (human) (UniProt Q9UQB9)
CAMK2A (human) = CAMK2A (human) (UniProt Q9UQM7)
CAMKK1 (human) = CAMKK1 (human) (UniProt Q8N5S9)
CDK7 CCNH MNAT1 (human) = CDK7 CCNH MNAT1 (human) (UniProt P50613+P51948+P51946)
CLK2 (human) = CLK2 (human) (UniProt P49760)
CSNK1G3 (human) = CSNK1G3 (human) (UniProt Q9Y6M4)
CSNK1G3 (human), sequence (Q9Y6M4 whole entry, looked up): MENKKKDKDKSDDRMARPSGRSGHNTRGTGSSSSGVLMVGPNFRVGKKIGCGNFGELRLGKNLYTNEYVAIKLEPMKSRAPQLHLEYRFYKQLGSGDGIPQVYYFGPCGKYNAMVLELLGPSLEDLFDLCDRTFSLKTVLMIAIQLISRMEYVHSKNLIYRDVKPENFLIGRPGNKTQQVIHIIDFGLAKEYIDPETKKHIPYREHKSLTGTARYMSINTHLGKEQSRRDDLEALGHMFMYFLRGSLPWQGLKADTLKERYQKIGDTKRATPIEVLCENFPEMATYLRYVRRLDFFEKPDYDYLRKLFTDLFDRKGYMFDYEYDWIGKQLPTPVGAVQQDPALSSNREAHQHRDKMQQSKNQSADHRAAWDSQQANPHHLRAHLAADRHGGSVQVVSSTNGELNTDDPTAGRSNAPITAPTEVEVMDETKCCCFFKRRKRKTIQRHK

CSNK2A2 (human) = CSNK2A2 (human) (UniProt P19784)
DCLK2 (human) = DCLK2 (human) (UniProt Q8N568)
DDR2 (human) = DDR2 (human) (UniProt Q16832)
DDR2 (human), sequence (Q16832 whole entry, looked up): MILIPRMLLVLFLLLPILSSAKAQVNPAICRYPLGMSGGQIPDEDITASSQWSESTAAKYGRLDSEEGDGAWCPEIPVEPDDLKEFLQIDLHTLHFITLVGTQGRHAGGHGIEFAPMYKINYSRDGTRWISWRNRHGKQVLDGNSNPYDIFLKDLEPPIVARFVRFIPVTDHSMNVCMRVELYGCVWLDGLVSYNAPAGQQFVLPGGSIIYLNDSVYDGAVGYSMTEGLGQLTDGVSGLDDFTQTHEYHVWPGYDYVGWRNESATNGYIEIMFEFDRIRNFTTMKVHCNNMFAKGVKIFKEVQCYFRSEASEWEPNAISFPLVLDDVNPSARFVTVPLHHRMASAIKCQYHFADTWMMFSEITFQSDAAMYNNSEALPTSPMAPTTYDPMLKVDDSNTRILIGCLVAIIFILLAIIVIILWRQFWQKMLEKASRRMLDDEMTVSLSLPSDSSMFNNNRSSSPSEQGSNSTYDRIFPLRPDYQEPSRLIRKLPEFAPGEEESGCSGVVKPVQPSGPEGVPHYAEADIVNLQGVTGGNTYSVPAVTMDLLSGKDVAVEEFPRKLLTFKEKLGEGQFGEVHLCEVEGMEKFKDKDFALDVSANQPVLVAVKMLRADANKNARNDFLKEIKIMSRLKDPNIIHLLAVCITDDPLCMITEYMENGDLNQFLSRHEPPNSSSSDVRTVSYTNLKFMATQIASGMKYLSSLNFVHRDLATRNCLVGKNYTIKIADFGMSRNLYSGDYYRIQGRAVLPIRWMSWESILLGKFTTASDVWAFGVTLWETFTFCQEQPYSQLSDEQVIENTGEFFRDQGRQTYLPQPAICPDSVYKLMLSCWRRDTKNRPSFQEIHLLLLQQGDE

DSTYK (human) = DSTYK (human) (UniProt Q6XUX3)
DYRK1A (human) = DYRK1A (human) (UniProt Q13627)
EPHA1 (human) = EPHA1 (human) (UniProt P21709)
EPHA1 (human), sequence (P21709 whole entry, looked up): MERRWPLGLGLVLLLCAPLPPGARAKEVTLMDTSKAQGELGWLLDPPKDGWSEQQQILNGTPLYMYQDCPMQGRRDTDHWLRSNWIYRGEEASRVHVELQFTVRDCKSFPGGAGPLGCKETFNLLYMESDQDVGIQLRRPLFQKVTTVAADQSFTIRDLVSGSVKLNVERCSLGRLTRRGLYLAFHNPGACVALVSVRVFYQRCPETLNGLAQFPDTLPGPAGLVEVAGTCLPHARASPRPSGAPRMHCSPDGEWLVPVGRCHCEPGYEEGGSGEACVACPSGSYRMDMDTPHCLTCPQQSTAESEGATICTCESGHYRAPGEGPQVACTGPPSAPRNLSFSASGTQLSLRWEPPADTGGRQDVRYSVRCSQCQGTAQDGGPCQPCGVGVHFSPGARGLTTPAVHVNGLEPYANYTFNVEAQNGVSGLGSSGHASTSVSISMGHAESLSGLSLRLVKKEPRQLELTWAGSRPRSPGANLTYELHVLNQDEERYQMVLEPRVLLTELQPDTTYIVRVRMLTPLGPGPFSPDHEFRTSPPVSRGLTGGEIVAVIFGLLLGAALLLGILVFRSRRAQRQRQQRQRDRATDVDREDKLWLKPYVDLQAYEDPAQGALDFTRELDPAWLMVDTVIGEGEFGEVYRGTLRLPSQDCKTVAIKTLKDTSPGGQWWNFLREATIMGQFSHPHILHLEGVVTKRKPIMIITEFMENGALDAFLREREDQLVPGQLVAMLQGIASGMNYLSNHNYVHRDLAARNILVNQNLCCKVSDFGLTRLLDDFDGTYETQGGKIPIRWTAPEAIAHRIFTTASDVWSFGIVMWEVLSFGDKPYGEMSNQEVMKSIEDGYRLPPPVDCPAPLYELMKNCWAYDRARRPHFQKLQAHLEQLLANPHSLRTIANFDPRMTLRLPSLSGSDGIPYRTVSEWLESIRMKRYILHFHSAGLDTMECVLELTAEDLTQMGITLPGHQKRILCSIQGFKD

FGFR2 (human) = FGFR2 (human) (UniProt P21802)
FGR (human) = FGR (human) (UniProt P09769)
FLT3 (human) = FLT3 (human) (UniProt P36888)
HIPK2 (human) = HIPK2 (human) (UniProt Q9H2X6)
JAK2 JH1 JH2 (human) = JAK2 JH1 JH2 (human) (UniProt O60674)
KIT (human) = KIT (human) (UniProt P10721)
LTK (human) = LTK (human) (UniProt P29376)
MAP2K2 (human) = MAP2K2 (human) (UniProt P36507)
MAP3K14 (human) = MAP3K14 (human) (UniProt Q99558)
MAPK9 (human) = MAPK9 (human) (UniProt P45984)
MST1R (human) = MST1R (human) (UniProt Q04912)
MST1R (human), sequence (Q04912 whole entry, looked up): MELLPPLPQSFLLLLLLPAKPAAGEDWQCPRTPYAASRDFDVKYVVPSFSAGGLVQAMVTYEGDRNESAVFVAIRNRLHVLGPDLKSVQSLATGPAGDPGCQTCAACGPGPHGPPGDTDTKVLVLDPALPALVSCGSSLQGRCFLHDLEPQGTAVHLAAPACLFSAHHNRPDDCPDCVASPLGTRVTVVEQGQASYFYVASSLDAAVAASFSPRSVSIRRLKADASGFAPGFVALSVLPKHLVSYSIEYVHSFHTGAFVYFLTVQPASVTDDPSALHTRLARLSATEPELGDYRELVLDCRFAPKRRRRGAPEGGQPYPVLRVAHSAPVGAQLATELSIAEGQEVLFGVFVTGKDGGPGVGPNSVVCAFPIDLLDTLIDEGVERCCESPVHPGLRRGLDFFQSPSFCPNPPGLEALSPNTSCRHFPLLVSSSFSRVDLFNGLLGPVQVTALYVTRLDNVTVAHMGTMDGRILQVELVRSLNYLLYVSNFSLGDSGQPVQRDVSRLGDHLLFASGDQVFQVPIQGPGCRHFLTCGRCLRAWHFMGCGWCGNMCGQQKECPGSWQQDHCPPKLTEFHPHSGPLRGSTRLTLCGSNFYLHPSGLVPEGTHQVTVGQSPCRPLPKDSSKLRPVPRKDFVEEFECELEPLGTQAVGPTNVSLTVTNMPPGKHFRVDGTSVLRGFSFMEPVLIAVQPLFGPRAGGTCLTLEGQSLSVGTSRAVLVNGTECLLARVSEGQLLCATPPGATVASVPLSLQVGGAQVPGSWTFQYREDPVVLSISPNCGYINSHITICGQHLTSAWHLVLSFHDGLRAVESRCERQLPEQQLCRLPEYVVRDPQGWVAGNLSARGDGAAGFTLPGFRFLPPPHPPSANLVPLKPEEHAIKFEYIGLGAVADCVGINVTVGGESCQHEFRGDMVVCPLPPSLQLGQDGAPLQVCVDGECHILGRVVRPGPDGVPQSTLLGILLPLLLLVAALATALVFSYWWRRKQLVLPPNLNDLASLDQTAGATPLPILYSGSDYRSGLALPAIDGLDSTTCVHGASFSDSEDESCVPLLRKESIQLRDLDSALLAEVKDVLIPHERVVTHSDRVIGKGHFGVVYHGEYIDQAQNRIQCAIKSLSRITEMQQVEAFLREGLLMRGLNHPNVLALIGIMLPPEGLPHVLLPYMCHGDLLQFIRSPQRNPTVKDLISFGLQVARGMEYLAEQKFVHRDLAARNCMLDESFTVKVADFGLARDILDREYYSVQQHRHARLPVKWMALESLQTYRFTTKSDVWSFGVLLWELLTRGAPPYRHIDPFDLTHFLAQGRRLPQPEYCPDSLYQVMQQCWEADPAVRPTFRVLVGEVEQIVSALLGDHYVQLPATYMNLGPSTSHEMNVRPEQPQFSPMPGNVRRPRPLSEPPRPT

MYLK (human) = MYLK (human) (UniProt Q15746)
OXSR1 (human) = OXSR1 (human) (UniProt O95747)
OXSR1 (human), sequence (O95747 whole entry, looked up): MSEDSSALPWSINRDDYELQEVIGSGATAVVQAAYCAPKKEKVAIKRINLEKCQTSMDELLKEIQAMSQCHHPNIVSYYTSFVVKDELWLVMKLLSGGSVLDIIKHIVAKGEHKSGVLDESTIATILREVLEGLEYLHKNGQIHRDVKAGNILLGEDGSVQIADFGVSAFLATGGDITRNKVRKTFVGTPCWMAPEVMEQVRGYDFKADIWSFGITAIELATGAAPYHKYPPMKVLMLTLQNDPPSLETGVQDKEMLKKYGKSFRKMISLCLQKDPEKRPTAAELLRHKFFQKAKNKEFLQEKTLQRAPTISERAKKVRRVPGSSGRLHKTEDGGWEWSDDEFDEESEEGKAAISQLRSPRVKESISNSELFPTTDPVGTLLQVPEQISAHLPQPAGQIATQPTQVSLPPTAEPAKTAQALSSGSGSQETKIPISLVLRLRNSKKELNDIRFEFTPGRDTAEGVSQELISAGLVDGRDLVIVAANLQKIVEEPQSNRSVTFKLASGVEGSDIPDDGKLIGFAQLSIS

PASK (human) = PASK (human) (UniProt Q96RG2)
PLK2 (human) = PLK2 (human) (UniProt Q9NYY3)
PRKACA (human) = PRKACA (human) (UniProt P17612)
PRKCE (human) = PRKCE (human) (UniProt Q02156)
PRKD1 (human) = PRKD1 (human) (UniProt Q15139)
SIK2 (human) = SIK2 (human) (UniProt Q9H0K1)
SLK (human) = SLK (human) (UniProt Q9H2G2)
SRPK2 (human) = SRPK2 (human) (UniProt P78362)
STK16 (human) = STK16 (human) (UniProt O75716)
STK24 (human) = STK24 (human) (UniProt Q9Y6E0)
TAOK2 (human) = TAOK2 (human) (UniProt Q9UL54)
TAOK3 (human) = TAOK3 (human) (UniProt Q9H2K8)
TNK2 (human) = TNK2 (human) (UniProt Q07912)
TYRO3 (human) = TYRO3 (human) (UniProt Q06418)
TYRO3 (human), sequence (Q06418 whole entry, looked up): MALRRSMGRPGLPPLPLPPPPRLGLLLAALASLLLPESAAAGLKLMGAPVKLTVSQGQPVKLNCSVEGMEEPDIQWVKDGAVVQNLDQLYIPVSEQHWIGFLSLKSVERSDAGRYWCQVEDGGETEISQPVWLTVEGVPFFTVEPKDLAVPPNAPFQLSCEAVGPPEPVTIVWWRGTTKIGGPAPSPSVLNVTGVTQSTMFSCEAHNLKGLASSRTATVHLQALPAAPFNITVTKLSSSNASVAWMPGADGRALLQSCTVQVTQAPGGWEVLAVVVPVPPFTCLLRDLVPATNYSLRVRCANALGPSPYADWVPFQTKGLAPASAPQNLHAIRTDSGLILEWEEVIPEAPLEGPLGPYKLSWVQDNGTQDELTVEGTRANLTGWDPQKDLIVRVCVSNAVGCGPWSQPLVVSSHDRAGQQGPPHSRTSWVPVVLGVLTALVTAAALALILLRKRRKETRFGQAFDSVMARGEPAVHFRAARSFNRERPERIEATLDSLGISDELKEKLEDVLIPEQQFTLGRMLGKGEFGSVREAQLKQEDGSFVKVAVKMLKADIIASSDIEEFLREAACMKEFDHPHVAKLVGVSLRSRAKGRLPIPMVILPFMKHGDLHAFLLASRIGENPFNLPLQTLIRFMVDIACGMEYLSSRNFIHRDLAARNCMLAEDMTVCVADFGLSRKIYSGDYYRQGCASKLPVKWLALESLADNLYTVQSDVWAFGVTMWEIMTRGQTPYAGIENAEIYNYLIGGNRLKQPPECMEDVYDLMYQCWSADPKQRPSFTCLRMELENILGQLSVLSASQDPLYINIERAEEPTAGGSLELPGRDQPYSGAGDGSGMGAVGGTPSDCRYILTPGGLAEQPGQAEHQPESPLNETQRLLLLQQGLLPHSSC

`COc1ccc(S(=O)(=O)N(CCO)c2ccccc2CN(C)C/C=C/c2ccc(Cl)cc2)cc1` gave a residual activity (ABL2 (human)) of 97.4%, a residual activity (ALK (human)) of 98.1% and a residual activity (AURKB (human)) of 106%. The residual activity (AURKC (human)) was 96.8%, the residual activity (CAMK2A (human)) was 107% and the residual activity (CAMKK1 (human)) was 106%. For the same compound, the residual activity (CDK7 CCNH MNAT1 (human)) was 97.6%, the residual activity (CLK2 (human)) was 96.7% and the residual activity (CSNK1G3 (human)) was 98.3%. For the same compound, the residual activity (CSNK2A2 (human)) was 93.7%, the residual activity (DCLK2 (human)) was 99.1% and the residual activity (DDR2 (human)) was 96.8%. It also gave a residual activity (DSTYK (human)) of 93.5%, a residual activity (DYRK1A (human)) of 102% and a residual activity (EPHA1 (human)) of 101%. It also gave a residual activity (FGFR2 (human)) of 98.6%, a residual activity (FGR (human)) of 99.8% and a residual activity (FLT3 (human)) of 98.4%. It also gave a residual activity (HIPK2 (human)) of 107%, a residual activity (JAK2 JH1 JH2 (human)) of 98.4% and a residual activity (KIT (human)) of 103%. For the same compound, the residual activity (LTK (human)) was 97.9%, the residual activity (MAP2K2 (human)) was 100% and the residual activity (MAP3K14 (human)) was 90.8%. The residual activity (MAPK9 (human)) was 85.5%, the residual activity (MST1R (human)) was 95.4% and the residual activity (MYLK (human)) was 98.4%. The residual activity (OXSR1 (human)) was 106%, the residual activity (PASK (human)) was 103% and the residual activity (PLK2 (human)) was 102%. It also gave a residual activity (PRKACA (human)) of 104%, a residual activity (PRKCE (human)) of 97.2% and a residual activity (PRKD1 (human)) of 100%. It also gave a residual activity (SIK2 (human)) of 97.4%, a residual activity (SLK (human)) of 103% and a residual activity (SRPK2 (human)) of 98.5%. The residual activity (STK16 (human)) was 102%, the residual activity (STK24 (human)) was 101% and the residual activity (TAOK2 (human)) was 90.9%. The residual activity (TAOK3 (human)) was 91.2%, the residual activity (TNK2 (human)) was 94.1% and the residual activity (TYRO3 (human)) was 97.1%.

Compound `CC(C)(C)c1cc(C=C(C#N)C#N)cc(Br)c1O` has a residual activity (ABL2 (human)) of 57.1%, a residual activity (ALK (human)) of 97.9% and a residual activity (AURKB (human)) of 97.1%. The residual activity (AURKC (human)) was 87.6%, the residual activity (CAMK2A (human)) was 104% and the residual activity (CAMKK1 (human)) was 120%. The residual activity (CDK7 CCNH MNAT1 (human)) was 98.5%, the residual activity (CLK2 (human)) was 104% and the residual activity (CSNK1G3 (human)) was 85.8%. For the same compound, the residual activity (CSNK2A2 (human)) was 94.5%, the residual activity (DCLK2 (human)) was 109% and the residual activity (DDR2 (human)) was 105%. It also gave a residual activity (DSTYK (human)) of 105%, a residual activity (DYRK1A (human)) of 95.4% and a residual activity (EPHA1 (human)) of 85.1%. It also gave a residual activity (FGFR2 (human)) of 96.4%, a residual activity (FGR (human)) of 75.4% and a residual activity (FLT3 (human)) of 102%. The residual activity (HIPK2 (human)) was 110%, the residual activity (JAK2 JH1 JH2 (human)) was 107% and the residual activity (KIT (human)) was 97.9%. For the same compound, the residual activity (LTK (human)) was 96.5%, the residual activity (MAP2K2 (human)) was 85.8% and the residual activity (MAP3K14 (human)) was 97.3%. It also gave a residual activity (MAPK9 (human)) of 103%, a residual activity (MST1R (human)) of 105% and a residual activity (MYLK (human)) of 90.6%. The residual activity (OXSR1 (human)) was 98%, the residual activity (PASK (human)) was 96.7% and the residual activity (PLK2 (human)) was 92.6%. The residual activity (PRKACA (human)) was 102%, the residual activity (PRKCE (human)) was 108% and the residual activity (PRKD1 (human)) was 100%. The residual activity (SIK2 (human)) was 115%, the residual activity (SLK (human)) was 94.7% and the residual activity (SRPK2 (human)) was 109%. The residual activity (STK16 (human)) was 99.2%, the residual activity (STK24 (human)) was 96.3% and the residual activity (TAOK2 (human)) was 96.5%. For the same compound, the residual activity (TAOK3 (human)) was 122%, the residual activity (TNK2 (human)) was 93.1% and the residual activity (TYRO3 (human)) was 110%.
